“And” between values parts separate entries of the source, which are not always exact repeats. Equal values may be shown once. Read-outs that look alike come from different tables or passages of the source.
Experiments:
[1] = test system: ALK-positive NSCLC; conditions: cited from earlier work
[2] = cited from earlier work; for patients who experienced diarrhea: in some studies
[3] = target: ALK L1196M mutant (Homo sapiens, UniProt Q9UM73, L1196M); assay: Biochemical kinase assay
[4] = target: ALK F1174 mutant (Homo sapiens, UniProt Q9UM73); assay: Biochemical kinase assay
[5] = target: TPM3-TRKA (Homo sapiens, UniProt P04629); assay: Biochemical kinase assay
[6] = target: ALK C1156Y mutant (Homo sapiens, UniProt Q9UM73, C1156Y); assay: Biochemical kinase assay
[7] = Phase I/II trial, safety; assay type: in vivo
[8] = test system: ALK-positive lung cancer cell lines; conditions: cited from earlier work
[9] = target: c-MET (Homo sapiens, UniProt P08581); assay: Biochemical kinase assay
[10] = target: T1, EphA1 (Homo sapiens, UniProt P21709); assay: Biochemical kinase assay
T1 sequence (P21709 26-976): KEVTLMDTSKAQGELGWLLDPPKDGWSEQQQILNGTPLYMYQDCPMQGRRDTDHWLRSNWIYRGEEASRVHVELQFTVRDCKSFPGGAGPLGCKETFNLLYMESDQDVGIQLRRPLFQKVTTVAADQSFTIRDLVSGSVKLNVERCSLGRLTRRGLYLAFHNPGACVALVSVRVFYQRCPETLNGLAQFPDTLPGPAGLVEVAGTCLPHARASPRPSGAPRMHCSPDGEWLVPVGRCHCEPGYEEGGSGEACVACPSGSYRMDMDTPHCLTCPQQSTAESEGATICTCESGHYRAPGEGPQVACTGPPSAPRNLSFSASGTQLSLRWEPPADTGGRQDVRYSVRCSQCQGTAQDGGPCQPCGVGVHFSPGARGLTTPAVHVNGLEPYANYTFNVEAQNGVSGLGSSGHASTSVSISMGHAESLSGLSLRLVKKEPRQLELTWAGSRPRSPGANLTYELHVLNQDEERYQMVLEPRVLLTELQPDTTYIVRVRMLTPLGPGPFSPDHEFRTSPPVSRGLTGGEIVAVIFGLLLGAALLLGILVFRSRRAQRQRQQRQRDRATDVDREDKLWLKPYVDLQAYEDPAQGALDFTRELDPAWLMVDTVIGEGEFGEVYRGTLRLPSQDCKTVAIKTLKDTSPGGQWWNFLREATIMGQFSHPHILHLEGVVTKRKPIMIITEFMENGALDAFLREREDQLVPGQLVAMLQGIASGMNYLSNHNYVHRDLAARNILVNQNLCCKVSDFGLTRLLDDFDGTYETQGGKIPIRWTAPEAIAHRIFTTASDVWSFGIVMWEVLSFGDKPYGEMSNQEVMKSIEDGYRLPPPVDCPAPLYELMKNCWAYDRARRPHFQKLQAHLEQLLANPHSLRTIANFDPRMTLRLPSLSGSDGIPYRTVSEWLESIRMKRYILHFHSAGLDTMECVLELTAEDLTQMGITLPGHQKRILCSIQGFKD

[11] = target: GOPC-ROS1 (Homo sapiens, UniProt P08922); assay: Biochemical kinase assay
[12] = target: ALK S1206R mutant (Homo sapiens, UniProt Q9UM73, S1206R); assay: Biochemical kinase assay
[13] = target: ALK variants; assay: Biochemical kinase assay; conditions: read-out: in vitro IC50s, all evaluated ALK variants; wild-type ALK and 17 ALK variants
[14] = test system: ALK fusions engineered to have point mutation L1196M; conditions: mutation associated with crizotinib resistance; cited from earlier work
[15] = Phase I/II trial, plasma pharmacokinetics; assay type: in vivo, human
[16] = target: EphA2 (Homo sapiens, UniProt P29317); assay: Biochemical kinase assay
[17] = test system: ALK fusions engineered to have point mutation C1156Y; conditions: mutation associated with crizotinib resistance; cited from earlier work
[18] = target: ALK T1151 mutant (Homo sapiens, UniProt Q9UM73); assay: Biochemical kinase assay
[19] = target: T2, EphB1 (Homo sapiens, UniProt P54762); assay: Biochemical kinase assay
T2 sequence (P54762 18-984): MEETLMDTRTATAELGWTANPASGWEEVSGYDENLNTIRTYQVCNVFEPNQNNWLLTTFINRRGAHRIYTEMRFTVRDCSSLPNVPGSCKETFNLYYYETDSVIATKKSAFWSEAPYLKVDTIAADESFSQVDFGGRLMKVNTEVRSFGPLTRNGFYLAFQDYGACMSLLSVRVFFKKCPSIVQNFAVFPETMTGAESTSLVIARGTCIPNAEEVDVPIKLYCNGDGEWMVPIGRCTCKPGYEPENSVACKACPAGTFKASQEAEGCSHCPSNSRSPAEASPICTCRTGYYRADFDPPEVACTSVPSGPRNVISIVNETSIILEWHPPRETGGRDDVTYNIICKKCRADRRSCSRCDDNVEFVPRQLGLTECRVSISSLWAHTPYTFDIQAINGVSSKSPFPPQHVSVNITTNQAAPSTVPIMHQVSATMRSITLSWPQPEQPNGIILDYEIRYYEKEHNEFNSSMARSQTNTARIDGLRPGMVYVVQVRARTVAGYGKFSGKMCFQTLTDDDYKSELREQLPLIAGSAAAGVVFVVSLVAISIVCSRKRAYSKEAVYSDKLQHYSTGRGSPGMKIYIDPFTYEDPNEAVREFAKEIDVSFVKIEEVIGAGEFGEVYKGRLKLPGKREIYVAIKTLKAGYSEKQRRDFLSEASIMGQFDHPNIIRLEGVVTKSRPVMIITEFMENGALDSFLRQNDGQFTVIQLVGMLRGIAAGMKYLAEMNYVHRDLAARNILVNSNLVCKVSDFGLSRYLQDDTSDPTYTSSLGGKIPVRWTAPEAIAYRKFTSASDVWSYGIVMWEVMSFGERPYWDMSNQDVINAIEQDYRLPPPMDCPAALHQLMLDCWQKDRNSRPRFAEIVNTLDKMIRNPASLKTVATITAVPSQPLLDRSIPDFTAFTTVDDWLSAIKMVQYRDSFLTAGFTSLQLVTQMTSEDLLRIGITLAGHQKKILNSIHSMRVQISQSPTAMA

[20] = test system: H3122 lung cancer xenografts (EML4-ALK E13;A20 fusion); conditions: cited from earlier work
[21] = target: TRKC (Homo sapiens, UniProt Q16288); assay: Biochemical kinase assay
[22] = target: wild-type ALK (Homo sapiens, UniProt Q9UM73); assay: Biochemical kinase assay
[23] = test system: ALK-positive NSCLC; assay: Phase I/II trial, antitumor activity; assay type: in vivo, human
[24] = test system: ALK-positive NSCLC; conditions: crizotinib-refractory population; cited from earlier work
[25] = ALK-positive efficacy evaluable patients, ≥200 mg, n=60
[26] = patients with baseline CNS target lesions, n=14, ≥200 mg
[27] = prior crizotinib and at least one second-generation ALK TKI, n=16

Chain of c-MET (P08581 25-1390): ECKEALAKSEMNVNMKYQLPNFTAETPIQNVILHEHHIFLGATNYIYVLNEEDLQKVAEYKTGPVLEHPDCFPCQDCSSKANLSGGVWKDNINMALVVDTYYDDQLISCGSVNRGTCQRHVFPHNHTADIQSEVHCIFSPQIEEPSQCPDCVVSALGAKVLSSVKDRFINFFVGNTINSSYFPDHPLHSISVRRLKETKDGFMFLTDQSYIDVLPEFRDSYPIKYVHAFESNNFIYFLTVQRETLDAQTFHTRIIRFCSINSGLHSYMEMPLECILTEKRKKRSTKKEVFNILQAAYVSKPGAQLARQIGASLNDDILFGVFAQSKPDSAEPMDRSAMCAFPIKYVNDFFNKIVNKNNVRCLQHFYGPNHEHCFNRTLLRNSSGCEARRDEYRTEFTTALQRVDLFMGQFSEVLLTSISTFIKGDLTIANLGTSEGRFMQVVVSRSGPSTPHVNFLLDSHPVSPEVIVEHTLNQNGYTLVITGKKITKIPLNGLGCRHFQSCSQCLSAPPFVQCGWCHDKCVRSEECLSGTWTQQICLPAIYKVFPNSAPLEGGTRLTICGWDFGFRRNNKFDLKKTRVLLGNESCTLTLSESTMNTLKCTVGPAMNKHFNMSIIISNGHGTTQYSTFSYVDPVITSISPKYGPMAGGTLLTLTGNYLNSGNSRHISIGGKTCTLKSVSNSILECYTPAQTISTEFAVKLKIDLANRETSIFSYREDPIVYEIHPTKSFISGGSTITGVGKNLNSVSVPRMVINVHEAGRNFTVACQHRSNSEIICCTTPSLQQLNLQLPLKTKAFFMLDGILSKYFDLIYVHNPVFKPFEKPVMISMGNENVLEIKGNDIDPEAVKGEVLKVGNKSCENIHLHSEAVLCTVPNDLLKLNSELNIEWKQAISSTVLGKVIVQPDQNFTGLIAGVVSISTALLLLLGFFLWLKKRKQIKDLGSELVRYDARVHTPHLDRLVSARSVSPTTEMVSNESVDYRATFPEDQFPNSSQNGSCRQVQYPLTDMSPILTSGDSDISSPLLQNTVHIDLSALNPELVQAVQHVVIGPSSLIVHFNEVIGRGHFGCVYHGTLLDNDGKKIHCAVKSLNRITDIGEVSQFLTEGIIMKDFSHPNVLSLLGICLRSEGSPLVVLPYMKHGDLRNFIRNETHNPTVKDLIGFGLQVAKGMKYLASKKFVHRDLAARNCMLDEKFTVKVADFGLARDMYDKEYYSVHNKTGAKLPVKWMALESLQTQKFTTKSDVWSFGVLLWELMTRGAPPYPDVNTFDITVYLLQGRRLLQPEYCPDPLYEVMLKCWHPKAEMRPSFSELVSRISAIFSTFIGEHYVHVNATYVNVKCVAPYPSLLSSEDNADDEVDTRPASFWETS
Chain of ALK L1196M mutant (Q9UM73 19-1620 L1196M): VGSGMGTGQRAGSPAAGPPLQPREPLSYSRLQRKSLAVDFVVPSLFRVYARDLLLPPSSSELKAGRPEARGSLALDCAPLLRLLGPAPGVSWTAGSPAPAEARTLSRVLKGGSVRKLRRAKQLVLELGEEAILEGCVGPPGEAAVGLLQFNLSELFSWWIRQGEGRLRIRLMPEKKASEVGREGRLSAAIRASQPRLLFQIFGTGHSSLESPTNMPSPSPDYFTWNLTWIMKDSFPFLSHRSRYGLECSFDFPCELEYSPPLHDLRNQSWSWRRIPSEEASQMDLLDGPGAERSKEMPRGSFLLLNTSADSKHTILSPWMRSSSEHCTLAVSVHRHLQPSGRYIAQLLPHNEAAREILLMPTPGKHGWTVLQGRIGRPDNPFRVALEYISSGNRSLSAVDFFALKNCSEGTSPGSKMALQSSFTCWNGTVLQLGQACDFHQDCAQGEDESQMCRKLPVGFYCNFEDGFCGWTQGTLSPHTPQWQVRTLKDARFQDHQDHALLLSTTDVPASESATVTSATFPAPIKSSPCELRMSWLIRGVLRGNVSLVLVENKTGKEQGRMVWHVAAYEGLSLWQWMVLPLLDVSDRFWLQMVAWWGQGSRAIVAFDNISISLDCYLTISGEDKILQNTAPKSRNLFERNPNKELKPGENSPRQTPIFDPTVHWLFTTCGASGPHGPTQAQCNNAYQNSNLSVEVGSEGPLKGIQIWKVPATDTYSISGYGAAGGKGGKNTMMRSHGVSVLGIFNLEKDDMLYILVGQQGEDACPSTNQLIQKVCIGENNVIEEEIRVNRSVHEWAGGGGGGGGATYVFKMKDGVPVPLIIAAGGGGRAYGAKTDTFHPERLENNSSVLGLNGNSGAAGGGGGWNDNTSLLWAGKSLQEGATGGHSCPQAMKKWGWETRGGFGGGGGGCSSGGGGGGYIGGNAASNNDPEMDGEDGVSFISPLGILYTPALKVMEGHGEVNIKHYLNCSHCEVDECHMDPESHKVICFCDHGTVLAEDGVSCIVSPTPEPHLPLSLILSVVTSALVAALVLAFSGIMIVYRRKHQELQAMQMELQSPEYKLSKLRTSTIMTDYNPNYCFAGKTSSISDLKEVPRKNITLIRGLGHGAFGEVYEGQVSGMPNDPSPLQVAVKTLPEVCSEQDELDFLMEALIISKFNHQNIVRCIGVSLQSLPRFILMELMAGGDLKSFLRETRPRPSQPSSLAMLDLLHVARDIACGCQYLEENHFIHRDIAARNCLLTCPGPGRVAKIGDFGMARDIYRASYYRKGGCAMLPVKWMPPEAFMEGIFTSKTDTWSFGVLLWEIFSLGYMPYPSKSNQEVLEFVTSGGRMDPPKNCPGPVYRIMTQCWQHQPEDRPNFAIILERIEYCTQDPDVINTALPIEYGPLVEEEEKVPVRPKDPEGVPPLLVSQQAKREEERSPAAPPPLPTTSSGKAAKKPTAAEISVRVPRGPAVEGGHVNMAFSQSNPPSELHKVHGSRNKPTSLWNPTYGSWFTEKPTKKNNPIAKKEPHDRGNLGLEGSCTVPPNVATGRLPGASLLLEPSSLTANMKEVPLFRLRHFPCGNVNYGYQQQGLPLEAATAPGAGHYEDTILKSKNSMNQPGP
Chain of EphA2 (P29317 24-976): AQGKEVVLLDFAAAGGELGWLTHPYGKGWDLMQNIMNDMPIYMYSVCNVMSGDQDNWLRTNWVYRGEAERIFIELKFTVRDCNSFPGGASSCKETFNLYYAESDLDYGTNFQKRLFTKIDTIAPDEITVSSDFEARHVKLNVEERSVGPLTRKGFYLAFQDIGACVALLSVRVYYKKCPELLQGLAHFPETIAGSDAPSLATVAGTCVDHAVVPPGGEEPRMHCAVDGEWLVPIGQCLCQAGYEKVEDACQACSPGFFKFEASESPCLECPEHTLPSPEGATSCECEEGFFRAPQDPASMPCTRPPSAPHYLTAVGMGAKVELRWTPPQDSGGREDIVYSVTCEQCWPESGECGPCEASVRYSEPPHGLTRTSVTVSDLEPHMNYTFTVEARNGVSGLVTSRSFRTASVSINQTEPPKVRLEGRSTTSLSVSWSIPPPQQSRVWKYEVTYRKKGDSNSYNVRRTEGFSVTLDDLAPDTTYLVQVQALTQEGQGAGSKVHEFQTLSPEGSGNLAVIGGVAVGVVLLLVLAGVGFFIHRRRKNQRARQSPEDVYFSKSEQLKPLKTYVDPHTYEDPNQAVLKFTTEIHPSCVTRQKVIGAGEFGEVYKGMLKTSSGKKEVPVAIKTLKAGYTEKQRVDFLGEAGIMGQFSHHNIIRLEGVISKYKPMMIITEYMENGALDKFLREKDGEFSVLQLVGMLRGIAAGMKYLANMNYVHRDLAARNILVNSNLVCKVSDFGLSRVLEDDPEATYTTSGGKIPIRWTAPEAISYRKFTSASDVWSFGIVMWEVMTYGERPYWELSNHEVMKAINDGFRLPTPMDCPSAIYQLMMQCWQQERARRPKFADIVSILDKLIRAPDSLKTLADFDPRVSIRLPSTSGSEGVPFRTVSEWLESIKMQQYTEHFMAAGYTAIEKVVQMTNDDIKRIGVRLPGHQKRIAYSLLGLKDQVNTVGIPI
Chain of ALK F1174 mutant (Q9UM73 1058-1620, change not shown): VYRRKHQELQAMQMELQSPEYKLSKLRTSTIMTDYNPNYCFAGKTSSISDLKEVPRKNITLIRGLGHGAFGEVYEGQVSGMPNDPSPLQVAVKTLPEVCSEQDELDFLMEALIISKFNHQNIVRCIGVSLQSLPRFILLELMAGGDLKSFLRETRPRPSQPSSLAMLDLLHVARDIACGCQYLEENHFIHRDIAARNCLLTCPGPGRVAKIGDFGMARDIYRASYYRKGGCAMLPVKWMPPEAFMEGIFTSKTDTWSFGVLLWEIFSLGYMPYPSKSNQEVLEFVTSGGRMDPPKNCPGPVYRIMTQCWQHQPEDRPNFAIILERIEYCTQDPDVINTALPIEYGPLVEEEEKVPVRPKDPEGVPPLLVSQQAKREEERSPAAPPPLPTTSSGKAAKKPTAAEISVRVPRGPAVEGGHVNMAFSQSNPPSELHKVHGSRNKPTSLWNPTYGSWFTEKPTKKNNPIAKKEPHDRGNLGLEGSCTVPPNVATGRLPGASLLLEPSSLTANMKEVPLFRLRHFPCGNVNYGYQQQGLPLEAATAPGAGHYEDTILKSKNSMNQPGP
Chain of ALK T1151 mutant (Q9UM73 1058-1620, change not shown): as above
Chain of ALK S1206R mutant (Q9UM73 19-1620 S1206R): as the sequence (Q9UM73 19-1620 L1196M) above, with M1178L, S1188R counted along it
Chain of GOPC-ROS1 (P08922 1881-2347, other chains not shown): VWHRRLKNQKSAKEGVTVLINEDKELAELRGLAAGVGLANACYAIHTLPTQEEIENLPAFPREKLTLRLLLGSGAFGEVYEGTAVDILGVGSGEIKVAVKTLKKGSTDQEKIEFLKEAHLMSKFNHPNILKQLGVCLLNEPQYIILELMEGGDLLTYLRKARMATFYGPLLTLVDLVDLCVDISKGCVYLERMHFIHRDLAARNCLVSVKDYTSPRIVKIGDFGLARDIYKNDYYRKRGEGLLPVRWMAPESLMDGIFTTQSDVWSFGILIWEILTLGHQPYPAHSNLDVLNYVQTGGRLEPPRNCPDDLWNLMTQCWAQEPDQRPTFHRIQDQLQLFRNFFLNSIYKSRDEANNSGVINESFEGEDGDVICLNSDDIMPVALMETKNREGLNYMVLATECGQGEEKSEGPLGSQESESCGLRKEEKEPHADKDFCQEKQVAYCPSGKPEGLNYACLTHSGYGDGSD
Chain of wild-type ALK (Q9UM73 19-1620): as the sequence (Q9UM73 19-1620 L1196M) above, with M1178L counted along it

Cc1cc(Nc2ncc(Cl)c(Nc3ccccc3S(=O)(=O)C(C)C)n2)c(OC(C)C)cc1C1CCNCC1 [ceritinib]
patients discontinuing therapy [1]: 10% | patients who experienced a SAE [1]: 38% | patients with a dose interruption [1]: 66% | RR ([1]; first line): 73% | intracranial response ([1]; first line): 57% | median PFS ([1]; first line): 16.6 months | patients with vomiting [2]: majority of patients | patients who experienced diarrhea [2]: 75%

C[C@@H]1CN(C(=O)c2ccc(NC(=O)c3cc(O[C@H](C)c4c(Cl)ccc(F)c4Cl)c(N)nn3)cc2)C[C@H](C)N1 [ensartinib]
IC50 [3]: < 0.4 nM | IC50 [4]: < 0.4 nM | IC50 [5]: < 1 nM | IC50 [6]: < 0.4 nM | maximum tolerated dose ([7]; 25-250 mg once daily): not reached | deaths related to ensartinib ([7]; as considered by the sponsor): no deaths | Constipation, All grades ([7]; human, in vivo): 11 (11%) | Constipation, Grade ≥3 ([7]; human, in vivo): 0 | Decreased Appetite, All grades ([7]; human, in vivo): 18 (19%) | Decreased Appetite, Grade ≥3 ([7]; human, in vivo): 1 (1%) | Diarrhea, All grades ([7]; human, in vivo): 11 (11%) | Diarrhea, Grade ≥3 ([7]; human, in vivo): 0 | Dry Skin, All grades ([7]; human, in vivo): 14 (14%) | Dry Skin, Grade ≥3 ([7]; human, in vivo): 1 (1%) | Edema, All grades ([7]; human, in vivo): 15 (15%) | Edema, Grade ≥3 ([7]; human, in vivo): 1 (1%) | Elevated aspartate aminotransferase, All grades ([7]; human, in vivo): 12 (12%) | Elevated aspartate aminotransferase, Grade ≥3 ([7]; human, in vivo): 1 (1%) | Fatigue, All grades ([7]; human, in vivo): 21 (22%) | Fatigue, Grade ≥3 ([7]; human, in vivo): 2 (2%) | Nausea, All grades ([7]; human, in vivo): 35 (36%) | Nausea, Grade ≥3 ([7]; human, in vivo): 1 (1%) | Pruritus, All grades ([7]; human, in vivo): 27 (28%) | Pruritus, Grade ≥3 ([7]; human, in vivo): 5 (5%) | Rash, All grades ([7]; human, in vivo): 54 (56%) | Rash, Grade ≥3 ([7]; human, in vivo): 12 (12%) | Vomiting, All grades ([7]; human, in vivo): 25 (26%) | Vomiting, Grade ≥3 ([7]; human, in vivo): 1 (1%) | drug-related diarrhea ([7]; human, in vivo): 11% | patients permanently discontinued due to related toxicity ([7]; human, in vivo): 5.2% | patients requiring at least one dose reduction due to treatment-related toxicity ([7]; human, in vivo): 25% | patients with treatment-related Grade 3-4 AEs ([7]; human, in vivo): 23% | treatment-related fatigue ([7]; human, in vivo): 22% | treatment-related nausea ([7]; human, in vivo): 36% | treatment-related pruritus ([7]; human, in vivo): 28% | treatment-related vomiting ([7]; human, in vivo): 26% | recommended phase II dose (RP2D) ([7]; human, in vivo, 28 days): 225 mg | patients who died while on study ([7]; n=97): Five | potency relative to crizotinib at inhibiting growth [8]: 10 fold | IC50 [9]: 1 to 10 nM | IC50 [10]: 1 to 10 nM | IC50 [11]: < 1 nM | IC50 [12]: < 0.4 nM | IC50 [13]: < 4 nM | inhibition of ALK fusion with L1196M [14]: potently inhibited | impact of food on absorption ([15]; 225 mg, food consumed within 30 minutes after taking ensartinib): minimal impact | increase in mean day 22 AUC from 225 to 250 mg ([15]; fasted, 11% increase in dose): 36% | dose proportionality of mean day 22 Cmax and AUC ([15]; fasted, 200-225 mg): slightly more than dose proportionally | dose proportionality of mean day 22 Cmax and AUC ([15]; fasted, 225-250 mg): significantly more than dose proportionally | dose proportionality of mean day 22 Cmax and AUC ([15]; human, in vivo): increased dose proportionally | IC50 [16]: 1 to 10 nM | inhibition of ALK fusion with C1156Y [17]: potently inhibited | IC50 [18]: < 0.4 nM | IC50 [19]: 1 to 10 nM | antitumor activity in xenografts [20]: potent antitumor activity | IC50 [21]: < 1 nM | IC50 [22]: < 0.4 nM | median DOR ([23]; ALK TKI naïve patients, n=12): 24.4 months | median PFS ([23]; ALK TKI-naïve patients): 26.2 months | disease control rate (DCR) ([23]; ALK TKI-naïve patients, n=15): 86.7% | response rate (RR) ([23]; ALK TKI-naïve patients, n=15): 80% | disease control rate (DCR) [23, 25]: 81.7% | patients with tumor regression [23, 25]: 80% | median DOR ([23]; ALK-positive evaluable patients, n=35): 12.8 months | median PFS ([23]; ALK-positive evaluable patients, ≥200 mg): 9.2 months | median DOR ([23]; crizotinib and a second-generation ALK TKI, n=4): 4.4 months | intracranial DCR [23, 26]: 92.9% | intracranial response rate [23, 26]: 64% and 64.3% | patients with intracranial tumor regression [23, 26]: 78.6% | disease control rate (DCR) [23, 27]: 50.0% | response rate (RR) [23, 27]: 25% | median PFS ([23]; prior crizotinib only): 9.0 months | median DOR ([23]; prior crizotinib only, n=19): 7.4 months | disease control rate (DCR) ([23]; prior crizotinib only, n=29): 96.6% | response rate (RR) ([23]; prior crizotinib only, n=29): 69% | median intracranial DOR ([23]; responding patients with CNS target lesions at baseline, n=9, ≥200 mg): 5.7 months

COc1cc(N2CCC(N3CCN(C)CC3)CC2)ccc1Nc1ncc(Cl)c(Nc2ccccc2P(C)(C)=O)n1 [brigatinib]
RR [24]: 54% | median PFS [24]: 12.9 months | patients who experienced diarrhea [2]: 41%

Reference: article PMC6004248 (Clinical cancer research : an official journal of the …, 2018)
